Where two headings read alike, the source gives them in different places.
Legend:
[1] = system: Vascular smooth muscle (BO54) cells; type: cell-based, baboon; settings: 5 minute exposure
[2] = system: Vascular smooth muscle cells (BO54); experiment: Scratch-migration assay; type: cell-based, baboon; design: key to Migration Grade in the Cleared Area of the Well / Migration Grade in an Undisturbed Region of the Well: −=no migration; +1=minimal; +2=mild; +3=moderate; +4=marked (maximum density; limit of cell contact inhibition) migration
Procedure: (§1) Vascular smooth muscle cells (BO54) were derived from explants of baboon aortic smooth muscle, as described in Example 10. The cells were grown in flat bottom, six well tissue culture plates, which hold about 5 ml of medium. The vascular smooth muscle cells were plated at 200,000 cells/well and placed at 37° C. in a humidified 5% CO2 incubator for 18 hours. The wells were then scratched with a sterile portion of a single edge razor blade that was held by clamp or pliers and was brought aseptically into contact with the bottom of the well at a 90° angle. The cells from a small area along the scratch were removed by a sterile cotton tipped applicator while the blade was in contact with the bottom of the well. After incubation, the presence of cells in the “scratched” area is indicative of cell migration across the scratch line.
Briefly, a stock solution of cytochalasin B (Sigma Chemical Co.) in dimethyl sulfoxide (DMSO) at 1 mg/ml was prepared. Test dilutions of cytochalasin B or control medium were added. Each experiment included two sets of plates:
A set: Test agent exposure for 1, 3, 6, 8 and 10 days only; and
B set: Test agent exposure for 1, 3, 6, 8 and 10 days, followed by a seven day recovery time with control medium.
Both sets of plates were fixed (10% formalin in PBS) and stained (0.02% crystal violet) at the end of the timed exposures. Test concentrations for cytochalasin B were 1, 0.1 and 0.01 μg/ml, and a negative medium control was included. Fresh medium and drug were supplied 3 times per week.
In this Table, “M” indicates Migration Grade. wherein −=no migration; +1=minimal; +2=mild; +3=moderate; and +4=marked (maximum density; limit of cell contact inhibition) migration of vascular smooth muscle cells into the cleared area adjacent to the scratch. In this Table, “T” denotes a morphological Toxicity Grade, wherein −=no toxicity; +1=minimal; +2=mild; +3=moderate; and +4=marked toxicity. The migration results are expressed as “Grade in the Cleared Area of the Well/Grade in an Undisturbed Region of the Well.” The toxicity values represent a grade for all cells in each well.

[3] = system: Vascular smooth muscle (BO54) cells; type: cell-based, baboon; settings: 5 minute exposure; remark: listed apart in the source
[4] = pig, in vivo
[5] = system: Vascular smooth muscle cells (BO54); experiment: Scratch-migration assay; type: cell-based, baboon; design: key: −=no toxicity; +1=minimal; +2=mild; +3=moderate; +4=marked toxicity; settings: Continuous Exposure, 1.0 μg/mL
Procedure: as §1
Briefly, a stock solution of cytochalasin B (Sigma Chemical Co.) in dimethyl sulfoxide (DMSO) at 1 mg/ml was prepared. […]
In this Table, “M” indicates Migration Grade. wherein −=no migration; +1=minimal; +2=mild; +3=moderate; and +4=marked (maximum density; limit of cell contact inhibition) migration of vascular smooth muscle cells into the cleared area adjacent to the scratch. […] The migration results are expressed as “Grade in the Cleared Area of the Well/Grade in an Undisturbed Region of the Well.” The toxicity values represent a grade for all cells in each well.

[6] = Day 1, Continuous Exposure, 0.01 μg/mL
[7] = Day 1, Continuous Exposure, 0.1 μg/mL
[8] = Day 1, Continuous Exposure, 1.0 μg/mL
[9] = Day 1 exposure, 7-day Recovery Post Exposure, 0.01 μg/mL
[10] = Day 1 exposure, 7-day Recovery Post Exposure, 0.1 μg/mL
[11] = Day 1 exposure, 7-day Recovery Post Exposure, 1.0 μg/mL
[12] = Day 3, Continuous Exposure, 0.01 μg/mL
[13] = Day 3, Continuous Exposure, 0.1 μg/mL
[14] = Day 3, Continuous Exposure, 1.0 μg/mL
[15] = Day 3 exposure, 7-day Recovery Post Exposure, 0.01 μg/mL
[16] = Day 3 exposure, 7-day Recovery Post Exposure, 0.1 μg/mL
[17] = Day 3 exposure, 7-day Recovery Post Exposure, 1.0 μg/mL
[18] = Day 6, Continuous Exposure, 0.01 μg/mL
[19] = Day 6, Continuous Exposure, 0.1 μg/mL
[20] = Day 6, Continuous Exposure, 1.0 μg/mL
[21] = Day 6 exposure, 7-day Recovery Post Exposure, 0.01 μg/mL
[22] = Day 6 exposure, 7-day Recovery Post Exposure, 0.1 μg/mL
[23] = Day 6 exposure, 7-day Recovery Post Exposure, 1.0 μg/mL
[24] = Day 8, Continuous Exposure, 0.01 μg/mL
[25] = Day 8, Continuous Exposure, 0.1 μg/mL
[26] = Day 8, Continuous Exposure, 1.0 μg/mL
[27] = Day 8 exposure, 7-day Recovery Post Exposure, 0.01 μg/mL
[28] = Day 8 exposure, 7-day Recovery Post Exposure, 0.1 μg/mL
[29] = Day 8 exposure, 7-day Recovery Post Exposure, 1.0 μg/mL
[30] = Day 10, Continuous Exposure, 0.01 μg/mL
[31] = Day 10, Continuous Exposure, 0.1 μg/mL
[32] = Day 10, Continuous Exposure, 1.0 μg/mL
[33] = Day 10 exposure, 7-day Recovery Post Exposure, 0.01 μg/mL
[34] = Day 10 exposure, 7-day Recovery Post Exposure, 0.1 μg/mL
[35] = Day 10 exposure, 7-day Recovery Post Exposure, 1.0 μg/mL

## C=C1[C@@H](C)[C@H]2[C@H](Cc3ccccc3)NC(=O)[C@]23OC(=O)/C=C/[C@H](O)CCC[C@@H](C)C/C=C/[C@H]3[C@@H]1O [cytochalasin B]
[1]
  minimum effective dose (MED): 10 µg/mL
[2]; 0.1 μg/ml, even after 10 days of continuous exposure
  ability to migrate following removal of the therapeutic agent: +3 to +4
[2]; [6]
  Migration Grade in an Undisturbed Region of the Well: +3
  Migration Grade in the Cleared Area of the Well: +1
[2]; [7]
  Migration Grade in an Undisturbed Region of the Well: +3
  Migration Grade in the Cleared Area of the Well: +1
[2]; [8]
  Migration Grade in an Undisturbed Region of the Well: +2
  Migration Grade in the Cleared Area of the Well: −
[2]; [9]
  Migration Grade in an Undisturbed Region of the Well: −4
  Migration Grade in the Cleared Area of the Well: +3
[2]; [10]
  Migration Grade in an Undisturbed Region of the Well: +4
  Migration Grade in the Cleared Area of the Well: +3
[2]; [11]
  Migration Grade in an Undisturbed Region of the Well: +3
  Migration Grade in the Cleared Area of the Well: +2
[2]; [12]
  Migration Grade in an Undisturbed Region of the Well: +4
  Migration Grade in the Cleared Area of the Well: +3
[2]; [13]
  Migration Grade in an Undisturbed Region of the Well: +4
  Migration Grade in the Cleared Area of the Well: +1
[2]; [14]
  Migration Grade in an Undisturbed Region of the Well: +2
  Migration Grade in the Cleared Area of the Well: −
[2]; [15]
  Migration Grade in an Undisturbed Region of the Well: −4
  Migration Grade in the Cleared Area of the Well: +3
[2]; [16]
  Migration Grade in an Undisturbed Region of the Well: +4
  Migration Grade in the Cleared Area of the Well: +3
[2]; [17]
  Migration Grade in an Undisturbed Region of the Well: +3
  Migration Grade in the Cleared Area of the Well: +2
[2]; [18]
  Migration Grade in an Undisturbed Region of the Well: +4
  Migration Grade in the Cleared Area of the Well: +3
[2]; [19]
  Migration Grade in an Undisturbed Region of the Well: +4
  Migration Grade in the Cleared Area of the Well: +2
[2]; [20]
  Migration Grade in an Undisturbed Region of the Well: +2
  Migration Grade in the Cleared Area of the Well: −
[2]; [21]
  Migration Grade in an Undisturbed Region of the Well: +4/+4
  Migration Grade in the Cleared Area of the Well: +4/+4
[2]; [22]
  Migration Grade in an Undisturbed Region of the Well: +4
  Migration Grade in the Cleared Area of the Well: +3
[2]; [23]
  Migration Grade in an Undisturbed Region of the Well: +3
  Migration Grade in the Cleared Area of the Well: +2
[2]; [24]
  Migration Grade in an Undisturbed Region of the Well: +4
  Migration Grade in the Cleared Area of the Well: +3
[2]; [25]
  Migration Grade in an Undisturbed Region of the Well: +4
  Migration Grade in the Cleared Area of the Well: +2
[2]; [26]
  Migration Grade in an Undisturbed Region of the Well: +2
  Migration Grade in the Cleared Area of the Well: −
[2]; [27]
  Migration Grade in an Undisturbed Region of the Well: +4/+4
  Migration Grade in the Cleared Area of the Well: +4/+4
[2]; [28]
  Migration Grade in an Undisturbed Region of the Well: +4
  Migration Grade in the Cleared Area of the Well: +3
[2]; [29]
  Migration Grade in an Undisturbed Region of the Well: +3
  Migration Grade in the Cleared Area of the Well: +2
[2]; [30]
  Migration Grade in an Undisturbed Region of the Well: +4
  Migration Grade in the Cleared Area of the Well: +3
[2]; [31]
  Migration Grade in an Undisturbed Region of the Well: +4
  Migration Grade in the Cleared Area of the Well: +2
[2]; [32]
  Migration Grade in an Undisturbed Region of the Well: +2
  Migration Grade in the Cleared Area of the Well: −
[2]; [33]
  Migration Grade in an Undisturbed Region of the Well: +4/+4
  Migration Grade in the Cleared Area of the Well: +4/+4
[2]; [34]
  Migration Grade in an Undisturbed Region of the Well: +4/+4
  Migration Grade in the Cleared Area of the Well: +4/+4
[2]; [35]
  Migration Grade in an Undisturbed Region of the Well: +3
  Migration Grade in the Cleared Area of the Well: +2
[2]; dose of 0.1 μg/ml
  migration into the cleared area adjacent to the scratch: +1 to +2
[2]; in vitro data
  time to resume migration after cells clear the agent: ≤ 24 h
[3]
  minimum effective dose (MED): 10 µg/mL
[4]
  incidence of mural microthrombi: decreased
  lumen area of test region versus normal control segment of the same artery: approximately two times as large
  luminal area versus other test agents or controls: larger luminal area
  percent change in treated vs. normal luminal area (increase): ≈ 140%
  toxicity to the vascular smooth muscle cells: appeared to be toxic to the vascular smooth muscle cells
  ± percent change in treated vs. normal luminal area: ≈ 20%
[5]; Day 8
  morphological Toxicity Grade: +4
[5]; Day 10
  morphological Toxicity Grade: +4

Reference: patent US8158670B2 (priority 1996, dated 2012)
